Consider `CCOC(=O)C1=C(N)NC(N)=C(C(=O)OCC)C1c1cccc(C(=O)OCC)c1`, for which the melting point is 191 °C.

In the case of `COc1ccc2nc(C(=O)Nc3nnn(Cc4ccc(Cl)c(Cl)c4)c3C)sc2c1`, the melting point worked out at 176 °C.

Compound `Cn1c(C(F)(F)F)cc(=O)n(-c2ccc(Cl)c(C=C(Cl)C(=O)O)c2)c1=O` showed a melting point of 216 to 217 °C. With `CN1CCC(C(=O)N(C)C)C(c2cccc(F)c2)C1` (stereo not drawn) the figure was 101 °C; with `Cc1ccc([N+](=O)[O-])c(C)c1C(=O)O`, 109 to 112 °C. In turn, `Cc1ccc(Oc2ccccc2NN)c(O)c1` came in with a melting point of 108 to 110 °C.

With `CCCCSc1nsnc1OC1CCNC1` (stereo not drawn), the melting point lay within 99 to 100 °C. The value for `Cc1cc(Oc2c(Cl)cc(C(F)(F)F)cc2Cl)nn1C(=O)NOC(C)(C)C` was 92 to 94 °C. `O=C(O)Cc1ccc2c(c1)CCc1ccccc1C2=O` displayed a melting point of 154 °C. With `Cc1c(C(=O)O)cnn1-c1ccc(C(F)(F)F)cc1` the figure was 181 °C; with `CCOP(=O)(OCC)C(Nc1nccs1)P(=O)(OCC)OCC`, 103 to 104 °C; with `COC(=O)CCC(=O)c1ccc2c(c1)CC(CO)O2` (stereo not drawn), 70 to 72 °C. Compound `CC(S)C(=O)NCCS` (stereo not drawn) gave a melting point of 53 °C. With `CCCCCCN1C(=O)NC(=O)C1O` (stereo not drawn) the figure was 96 to 97 °C; with `CCCCCCCCCOc1ccnc(C(=O)O)c1`, 89 to 92 °C. With `CC1=NN(C)C(=O)C1(Cl)C(Cl)c1ccc(Cl)cc1Cl` (stereo not drawn) the figure was 113 to 115 °C; with `CC(C)c1ccc(Oc2ccc(CCNc3ncnc4nccnc34)cc2)cc1`, 105 to 106 °C.

Take `CCCn1c(=O)c(N=O)c(N)n(CCc2ccc([N+](=O)[O-])cc2)c1=O`: the melting point lay in the range of 204 to 205 °C.

In turn, `CCC1C(C)=NN=C(c2ccc(OC)c(O)c2)c2cc(O)c(OC)cc21` (stereo not drawn) returned a melting point of 143 to 145 °C. With `CC1(C)CN(C2CCN(CCc3ccc(F)cc3)CC2)c2cc(CN)ccc21` the figure was 131 to 133 °C. In turn, `Cc1c(N2CCN(Cc3ccccc3)C(C)(C)C2)c(F)cc2c(=O)c(C(=O)O)cn(C3CC3)c12` gave a melting point of 170 to 171 °C. Compound `CCCCCCc1ccc(-c2ccc(COC(c3ccccc3)(c3ccccc3)c3ccccc3)cc2[N+](=O)[O-])cc1` gave a melting point of 86 to 87 °C.

For `O=C(O)Cc1c(C(=O)O)c2cc(Oc3ccc(C(F)(F)F)cc3)ccc2n1-c1ccc(C2CCNCC2)cc1`, the melting point is 256 to 258 °C. For `Cn1cc(C2=C(c3cn(CCCNc4ncccc4[N+](=O)[O-])c4ccccc34)C(=O)NC2=O)c2ccccc21`, the melting point is 218 to 220 °C. The value for `CC(C)c1nccc2c(CO)cccc12` was 120 to 121 °C; that for `O=C(O)Cc1cc2c([N+](=O)[O-])c(O)c(O)cc2oc1=O` was above 350 °C. With `COCc1nc2c(OCc3ccccc3)cccc2n1C` the figure was 120 to 122 °C; with `CSc1ccc2c(c1)N(CCCN1CCC(C(O)F)CC1c1ccccc1)c1ccccc1S2` (stereo not drawn), 60 °C. With `Cc1ccccc1-c1nc(-c2ccccc2Cl)sc1-c1ccc(S(C)(=O)=O)cc1` the figure was 156 to 157 °C; with `CS(=O)(=O)c1cc(F)cc2c3c(n(Cc4ccc(Cl)cc4)c12)[C@@H](CC(=O)O)CC3`, 175 °C.

In turn, `O=C(c1ccccc1)c1cc(Cl)ccc1-n1ccnc1` came in with a melting point of 106 to 108 °C.

`COc1cc2c(CSCCN3CC=C(c4ccccc4)CC3)c[nH]c2cc1C(=O)O`: the melting point fell in the range of 168 to 171 °C. With `COc1ccc(-c2[nH]c3cn[nH]c(=O)c3c2Cl)cc1OC(C)C` the figure was 291 to 299 °C. The value for `Cc1c(CC(C)C)sc2nc(C(Cl)(Cl)Cl)[nH]c(=O)c12` was 192 to 194 °C; that for `O=C1c2ccc(N3CCCC3)c3cc([N+](=O)[O-])cc(c23)C(=O)N1O` was 290 to 291 °C; that for `Fc1cccc(CSc2nnc(-c3ccc4nccn4c3)o2)c1` was 173 to 174 °C. The value for `CC(=O)OCc1nc(C(C)C)c(Sc2cc(Cl)cc(Cl)c2)n1Cc1ccncc1` was 133 to 135 °C; that for `CN1CCC(Sc2cc3c(cc2Cl)[nH]c(=O)n3C)CC1` was 210 to 212 °C. `CCCNc1ccc(C(=O)O)cc1[N+](=O)[O-]` returned a melting point of 208 °C. With `CS(=O)(=O)N1CCN([C@@H](CNS(=O)(=O)c2ccc(OCc3ccnc(-c4ccccc4)c3)cc2)C(=O)NO)CC1` the figure was 100 °C; with `CSc1ncncc1C1c2cc(C#N)ccc2CC1(C)C` (stereo not drawn), 157 to 158 °C; with `CCn1ncc2cc3c(nc21)C(Cl)c1ccccc1CC3` (stereo not drawn), 107 to 110 °C. Take `CN1CCC(=O)C(C2c3ccccc3CCc3ccccc32)C1` (stereo not drawn): the melting point was 146 to 147 °C. Compound `Oc1nc2cc(Cl)c3nc[nH]c3c2nc1O` gave a melting point above 300 °C. Regarding `C=CCC(C)(CC=C)C(=O)O[C@H]1C[C@H](O)C=C2C=C[C@H](C)[C@H](CC[C@@H]3C[C@@H](O)CC(=O)O3)[C@H]21`, the melting point is 115 to 116 °C. With `CC1NC(=O)NN=C1c1ccc(OCC(=O)NCCN2CCN(C(=O)c3ccc(Cl)cc3)CC2)c(Cl)c1` (stereo not drawn) the figure was 186 to 188 °C.

In turn, `CC(=O)OCc1[nH]c(C(=O)OCc2ccccc2)c(C)c1C(C)=O` came in with a melting point of 97 to 100 °C. The value for `CCCc1c(OCCOCCOCCOc2ccc3ccc(OCC(=O)O)cc3c2C(C)=O)ccc(C(C)=O)c1O` was 110 to 111 °C.

The compound `N#Cc1ccc2c(c1)C(=O)CC1(CCCCC1)O2` displayed a melting point of 92 to 93 °C. `CC(c1cccnn1)C(O)(Cn1cncn1)c1ccc(F)cc1F` (stereo not drawn) had a melting point of 134 to 135 °C.

Compound `COc1ccc(-c2nn(C3CCC3)c3c(C(F)(F)F)cccc23)c(OC)c1` yielded a melting point of 109 to 110 °C. The compound `CCC1(C)CC(NC(=O)c2ccccc2C(=O)O)C(C)C(C)(CC)N1` (stereo not drawn) came in with a melting point of 196 to 197 °C. In turn, `COc1ccc2c(c1)c1c(n2Cc2ccccc2)CCCC1C(=O)O` (stereo not drawn) had a melting point of 179 to 183 °C. With `CCCn1c(COCC)nc2c(N)nc3ccc(OCC(=O)N4CCS(=O)(=O)CC4)cc3c21` the figure was 223 to 225 °C; with `CSc1nn2c(O)cc(C)nc2c1S(=O)(=O)c1ccccc1`, above 220 °C.

For the compound `CCCCCCCCC(=O)OC(C)c1ccc(-c2ccc(OC)cc2)cc1` (single isomer, unassigned; (+)), the melting point lay in the range of 59 to 60 °C. As to `CCC(=O)C1(O)CC=C2CC3C4C=CC(O)C5OC1=C2C45CCN3C` (stereo not drawn), the melting point was in the range of 85 to 86 °C. As to `O=C(O)c1cccc2c(-c3ccccc3)coc12`, the melting point was in the range of 220 to 222 °C. Compound `C=C(Cn1ccnc1)c1cc(F)ccc1OCc1c(Cl)cccc1Cl` yielded a melting point of 106 to 108 °C. `Cn1c(-c2c(Cl)cccc2Cl)nc2cc(C(=O)O)ccc21` registered a melting point above 250 °C.

On to `NC(=S)Nc1cc[nH]n1`, for which the melting point fell in the range of 130 to 132 °C. Regarding `COCC(O)CN1CCN(c2cc3c(cc2F)c(=O)c(C(=O)O)c2n3CCS2)CC1` (stereo not drawn), the melting point stood at 224 °C. With `Cc1cc(C)c2nc(C)n(Cc3ccc(NCC4CCN(C5CCN(C)CC5)CC4)cc3)c2n1` the figure was 118 to 120 °C; with `Nc1c(F)c(F)cc(F)c1[N+](=O)[O-]`, 66 °C; with `CC(C)[C@H]1C(C(F)(F)F)OC(=O)N1Cc1ccccc1` (stereo partly drawn), 92 to 93 °C. With `O=C(c1ccc(F)cc1)C1CCN(CCn2c(=O)[nH]c3ccccc32)CC1` the figure was 164 °C. Consider `C=C1c2c(C)c(OCc3ccccc3)c(C)c(C)c2OC1(C)C`, for which the melting point is 55 to 57 °C. The value for `CC1CC(O)=NN1c1ccc(Cl)c(Cl)c1` (stereo not drawn) was 208 to 211 °C; that for `CCCCOc1c(CO)n(CC(C)(C)C)c(=O)c2ccc(OCC)cc12` was 92.5 to 93 °C. As to `CS(=O)c1cc(C(=O)O)c(Cl)cc1Cl` (stereo not drawn), the melting point was 200 to 201 °C.

In turn, `CCc1ccc2ccc(=O)[nH]c2n1` yielded a melting point of 133 to 134 °C. The value for `COC(=O)[C@@H]1C[C@H](C(=O)O)Nc2cc(C)cc(C)c21` (relative stereo) was 173 °C; that for `Cn1nc(-c2ccc(F)cc2)c(-c2ccc(S(C)(=O)=O)cc2)cc1=O` was 181 to 182 °C; that for `CCOP(=O)(CC(=O)Nc1cc2c(Nc3ccc(OCc4ccccn4)c(Cl)c3)ncnc2cn1)OCC` was 113 to 116 °C. The value for `CN(C(=O)c1ccc(Cn2cnc3ccccc32)cc1)[C@@H]1CCNC1` was 150 to 152 °C; that for `COC[C@](C#N)(C(=O)NCC(C)(C)C)[C@H](c1ccccc1OC)c1cccc2ccccc12` (relative stereo) was 185 to 186 °C. The value for `CCOC(=O)c1ccc(C(C)=Cc2ccc3ccccc3c2)cc1` was 96 °C; that for `O=c1[nH]c2ccc(-c3cc(CN4CCC(Cc5ccc(F)cc5)CC4)on3)cc2o1` was 237 to 244 °C.

For the compound `CC(C)(S)[C@@H](NC(=O)c1ccc(Br)cc1)C(=O)O`, the melting point was 176 °C.

Consider `COc1ccc(F)cc1C(C)(C)CC(O)(Cc1nc2cc(-c3ccccc3)ccc2o1)C(F)(F)F` (stereo not drawn), for which the melting point lay in the range of 103 to 104 °C.

On to `CCOc1cc(OC)cc(OP(=O)(O)O)c1C(=O)C=Cc1ccc(OC)cc1`, for which the melting point lay within 72 to 75 °C. With `COc1ccc(C(=O)Nc2ccc(OCc3ccccc3)cc2N)cc1C12CC3CC(CC(C3)C1)C2`, the melting point stood at 185 °C. As for `Cc1c(C(=O)Nc2ccc(N3CCC(N4CCC(O)CC4)CC3)c(C#N)c2)cnn1-c1ccc(Cl)cc1`, the melting point was 213 °C. For `Cc1cc(-c2cc(C(F)(F)F)n3ncc(C(=O)Nc4cccc(S(=O)(=O)N5CCCC5)c4)c3n2)ccc1Cl`, the melting point is 230 °C. The value for `COc1ccc2nc(NC(=O)CO)sc2c1` was 208 to 209 °C. On to `CCc1cccc(C)c1CNc1cc(CNC)cn2nc(C)nc12`, for which the melting point is 179 °C.

For `O=C(Nc1cccc2c1ncc1ccc(O)cc12)c1c(Cl)cccc1Cl`, the melting point was above 250 °C. The compound `COc1ccc(S(=O)(=O)N=[N+]=[N-])cc1` gave a melting point of 48 to 50 °C.

A word on the melting point: it is the temperature of the solid-liquid transition.

The values above are taken from a melting point compilation (Tetko et al.; mined from patent text by program, amines drawn as free bases though some values may be those of a salt).
